The values below come from patent publication US4260745A, “3-Halo cephalosporins” (Eli Lilly and Company, priority 1979, dated 1981).

A short description of this assay: bioautogram. The assay is classed as cell-based. Here is the method: To 110 ml. of methanol and 83 mg. of pre-reduced 5 percent palladium on carbon were added 83 mg. of p-nitrobenzyl 7-[2-(2-thienyl)acetamido]-3-fluoro-3-cephem-4-carboxylate. The mixture was hydrogenated at 53 psig. for one hour. The resulting mixture was filtered, the filtered catalyst was washed with methanol, and the methanol washings were added to the filtrate. The filtrate was then evaporated in vacuo. The residue was dissolved in ethyl acetate, and the ethyl acetate solution was extracted with dilute aqueous sodium bicarbonate. The sodium bicarbonate solution was washed with ethyl acetate, layered with ethyl acetate, and dilute aqueous HCl was added.

Turning to `O=C(Cc1cccs1)NC1C(=O)N2C(C(=O)O)=C(F)CS[C@H]12` (stereo partly shown) [7-[2-(2-Thienyl)acetamido]-3-fluoro-3-cephem-4-carboxylic acid], the “biological activity by bioautogram” value was “biologically active”.
